For this assay, the system named is SW480. Kind of assay: drug sensitivity score (DSS, integrated dose-response area); higher = more sensitive (stronger viability reduction); extreme values may be limits of the assay. The method in brief:
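Viability of induced SW480 cells carrying control or SND1-targeting shRNA was read by CellTiter-Glo 72 h after plating at 1000 cells per well onto 384-well plates holding 525 small-molecule inhibitors at five concentrations. Induction used 0.1 µg/mL doxycycline for 7 days. Each drug sensitivity score integrates the area under a fitted non-linear dose–response model.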

Setting [1] is: shRNA: SND1 shRNA1 (SND1 silenced).
Where [2] appears, read: shRNA: SND1 shRNA2 (SND1 silenced).
The mark [3] stands for this setting: shRNA: control shRNA (non-targeting).

Drug sensitivity score data for 31 molecules are collected here from the supplement of paper PMC9265050, “Inhibition of RNA Binding in SND1 Increases the Levels of miR-1-3p and Sensitizes Cancer Cells to Navitoclax” (Cancers, 2022).

For the molecule `COc1cc2c(Oc3ccc4[nH]c(C)cc4c3F)ncnc2cc1OCCCN1CCCC1` [Cediranib], the drug sensitivity score by setting is: under setting [1], 6.1 DSS; under setting [2], 5.1 DSS; under setting [3], 4.3 DSS.
`CO[C@@]12[C@H](COC(N)=O)C3=C(C(=O)C(C)=C(N)C3=O)N1C[C@@H]1N[C@@H]12` [Mitomycin C]: the drug sensitivity score by setting is: under setting [1], 2.7 DSS; under setting [2], 2.1 DSS; under setting [3], 1 DSS.
For the molecule `CC(=O)N(O)CCCCCNC(=O)CCC(=O)N(O)CCCCCNC(=O)CCC(=O)N(O)CCCCCN` [Deferoxamine], the drug sensitivity score by setting is: under setting [1], 8 DSS; under setting [3], 6.1 DSS.
For the molecule `c1cn2cc(-c3ccc4cn[nH]c4c3)nc(Nc3ccc(N4CCOCC4)cc3)c2n1` [Entospletinib], the drug sensitivity score is, setting by setting: under setting [1], 0 DSS; under setting [2], 0 DSS; under setting [3], 0 DSS.
The molecule `O=C(Nc1cc(Cl)cc2c1[nH]c1cnccc12)c1cccnc1` [PS-1145] yielded a drug sensitivity score under setting [1] of 0.4 DSS, a drug sensitivity score under setting [2] of 0 DSS and a drug sensitivity score under setting [3] of 1.8 DSS.
In the case of `CC[C@@H]1C(=O)N(C)c2cnc(Nc3ccc(C(=O)NC4CCN(C)CC4)cc3OC)nc2N1C1CCCC1` [BI 2536], the drug sensitivity score was 16.8 DSS under setting [1], 18.5 DSS under setting [2] and 19.9 DSS under setting [3].
In the case of `C[C@]12CC[C@@H]3c4ccc(O)cc4C[C@@H](CCCCCCCCC[S+]([O-])CCCC(F)(F)C(F)(F)F)[C@H]3[C@@H]1CC[C@@H]2O` (stereo partly drawn) [Fulvestrant], the drug sensitivity score under setting [1] turned out to be 0 DSS, the drug sensitivity score under setting [2] stood at 0 DSS and the drug sensitivity score under setting [3] is 1.3 DSS.
For `O=C1CCC(N2C(=O)c3ccccc3C2=O)C(=O)N1` (stereo not drawn) [Thalidomide], the drug sensitivity score runs as follows: under setting [1], 0.5 DSS; under setting [2], 0.1 DSS; under setting [3], 2 DSS.
With `CC(C)C(=O)Nc1ccc([N+](=O)[O-])c(C(F)(F)F)c1` [Flutamide], the drug sensitivity score was found to be 0 DSS under setting [1], 0 DSS under setting [2] and 0 DSS under setting [3].
`CC(=O)c1c(C)c2cnc(Nc3ccc(N4CCNCC4)cn3)nc2n(C2CCCC2)c1=O` [Palbociclib]: the drug sensitivity score runs as follows: under setting [1], 10.6 DSS; under setting [2], 10.4 DSS; under setting [3], 6.6 DSS.
On to `C#Cc1cccc(Nc2ncnc3cc(OC)c(OCCCCCCC(=O)NO)cc23)c1` [CUDC-101], for which the drug sensitivity score by setting is: under setting [1], 11.3 DSS; under setting [2], 12.6 DSS; under setting [3], 10.7 DSS.
As for `CCS(=O)(=O)N1CCN(c2ccc(Nc3ncc(C(N)=O)c(NC4CC4)n3)cc2)CC1` [Cerdulatinib], the drug sensitivity score is, setting by setting: under setting [1], 7.8 DSS; under setting [2], 6.6 DSS; under setting [3], 9.3 DSS.
On to `CCc1nc(-c2cccc(C)c2)c(-c2ccnc(NC(=O)c3ccccc3)c2)s1` [TAK-715], for which the drug sensitivity score came to 4.7 DSS under setting [1] and 5.1 DSS under setting [3].
`Cc1cnc(Nc2ccc(OCCN3CCCC3)cc2)nc1Nc1cccc(S(=O)(=O)NC(C)(C)C)c1` [Fedratinib]: the drug sensitivity score by setting is: under setting [1], 5.8 DSS; under setting [2], 6.5 DSS; under setting [3], 5.8 DSS.
`COC(=O)C[C@](O)(CCCC(C)(C)O)C(=O)O[C@@H]1C(OC)=C[C@]23CCCN2CCc2cc4c(cc2[C@H]13)OCO4` [Omacetaxine]: the drug sensitivity score runs as follows: under setting [1], 21.9 DSS; under setting [2], 23.5 DSS; under setting [3], 23.3 DSS.
As for `Nc1cccc2c1CN(C1CCC(=O)NC1=O)C2=O` (stereo not drawn) [Lenalidomide], the drug sensitivity score is 0 DSS under setting [1], 0.1 DSS under setting [2] and 2.3 DSS under setting [3].
The like results for `Cc1cc([C@@H](C)Nc2ccccc2C(=O)O)c2nc(N3CCOCC3)cc(=O)n2c1` [AZD-6482] were, in that order, 0 DSS, 4.3 DSS and 3 DSS.
As for `C=C1C[C@@H]2[C@H](CC[C@]3(C)C(=O)CC[C@@H]23)[C@@]2(C)C=CC(=O)C=C12` [Exemestane], the drug sensitivity score runs as follows: under setting [1], 3.1 DSS; under setting [2], 3 DSS; under setting [3], 4.6 DSS.
As for `NC(=O)c1cccc(-c2cccc(OC(=O)NC3CCCCC3)c2)c1` [URB597], the drug sensitivity score stood at 0.2 DSS under setting [1] and 2.6 DSS under setting [3].
On to `Cc1ccc(C(=O)N(CCCN)[C@@H](c2oc3cc(Cl)ccc3c(=O)c2Cc2ccccc2)C(C)C)cc1`, for which the drug sensitivity score runs as follows: under setting [1], 2.9 DSS; under setting [2], 3.7 DSS; under setting [3], 5.5 DSS.
`COCC(=O)NC/C=C/c1ccc2ncnc(Nc3ccc(Oc4ccc(C)nc4)c(C)c3)c2c1`: the drug sensitivity score amounted to 3.4 DSS under setting [1] and 3.2 DSS under setting [3].
`NCC(=O)Nc1ccc(-n2nc(C(F)(F)F)cc2-c2ccc3c(ccc4ccccc43)c2)cc1`: the drug sensitivity score by setting is: under setting [1], 10 DSS; under setting [2], 5.3 DSS; under setting [3], 7.5 DSS.
Consider `Cc1cc2c(F)c(Oc3ncnn4cc(OC[C@@H](C)O)c(C)c34)ccc2[nH]1` [Brivanib], for which the drug sensitivity score is 0 DSS under setting [1], 0 DSS under setting [2] and 0 DSS under setting [3].
For the molecule `CN1CC[C@H](c2c(O)cc(O)c3c(=O)cc(-c4ccccc4Cl)oc23)[C@H](O)C1` [Alvocidib], the drug sensitivity score was 21.9 DSS under setting [1], 20.3 DSS under setting [2] and 20.4 DSS under setting [3].
With `CC(C)c1cc(C(=O)N2Cc3ccc(CN4CCN(C)CC4)cc3C2)c(O)cc1O` [Onalespib], the drug sensitivity score runs as follows: under setting [1], 11.3 DSS; under setting [2], 9.4 DSS; under setting [3], 13.8 DSS.
The molecule `Cc1ccc(C(=O)Nc2ccc(Oc3cc4cnn(C)c4cc3-c3cn[nH]c3)c(F)c2)c(=O)n1-c1ccc(F)cc1` [Merestinib] returned a drug sensitivity score under setting [1] of 4.5 DSS, a drug sensitivity score under setting [2] of 5.4 DSS and a drug sensitivity score under setting [3] of 4.3 DSS.
Turning to `CC(C)(C)NC(=O)[C@H]1CC[C@H]2[C@@H]3CC[C@H]4NC(=O)C=C[C@]4(C)[C@H]3CC[C@]12C` [Finasteride], the drug sensitivity score was 0 DSS under setting [1], 0 DSS under setting [2] and 0.4 DSS under setting [3].
`Cc1cc(OCc2nnc(SC3CCCC3)n2-c2cccnc2)ccc1-c1ccc(S(C)(=O)=O)cc1` [NMS-873]: the drug sensitivity score reads like this: under setting [1], 9.5 DSS; under setting [2], 10.5 DSS; under setting [3], 9 DSS.
As for `C[C@@H]1CN(CC(=O)Nc2ccc3c(c2)Cc2cccc(-c4cc(=O)cc(N5CCOCC5)o4)c2S3)C[C@H](C)O1`, the drug sensitivity score reads like this: under setting [1], 6.4 DSS; under setting [3], 5.3 DSS.
Turning to `CN1CCN(c2nc(C3=C(c4c[nH]c5ccccc45)C(=O)NC3=O)c3ccccc3n2)CC1` [Sotrastaurin], the drug sensitivity score turned out to be 4.5 DSS under setting [1], 0.5 DSS under setting [2] and 4.9 DSS under setting [3].
As to `CCc1cc(Nc2nccc(-c3c(-c4ccc(OC)c(C(=O)Nc5c(F)cccc5F)c4)nc4ccccn34)n2)c(OC)cc1N1CCC(N2CCN(S(C)(=O)=O)CC2)CC1`, the drug sensitivity score runs as follows: under setting [1], 0.2 DSS; under setting [2], 2.1 DSS; under setting [3], 0 DSS.
